Source: patent US4673678A, “Water soluble derivatives of fredericamycin A” (The United States of America as represented by the …, priority 1986, dated 1987)
Structures can show the parent of a compound that is named as a salt. Where two headings read alike, the source gives them in different places.

Key:
[1] = pH of aqueous solution; format: physicochemical
[2] = solubility; format: physicochemical; settings: for solubility: water
Experimental: The potassium salt of fredericamycin A (NSC #601617) is soluble in water with hand shaking for 1 minute, followed by vortexing for 3 minutes. The solubility is about 1.0 mg/ml and gives a transparent blue solution, pH 8.65 with no residue upon membrane filtration (0.22μ, HA, Millipore Products).
Fredericamycin A (15 mg, 0.0278 mmols) is treated with NaOH solution, 1:3 mols (7.65 mls; 0.0109N, degased previously and cooled to 0° C.) in pyridine solution at 0° C. (2.5 ml, degased) under N2 atmosphere. Reaction is carried out by stirring magnetically for 60 minutes under N2 atmosphere. (40 minutes at 0° C. and 20 minutes at 15° C.). The progress of reaction is followed by TLC, HPLC (of hydrolysed product of the Rx mixture) and UV. The resultant blue-green clear reaction mixture is frozen (-70° C.) and lyophilized (48 hrs) until a solid is obtained. […] It is soluble in water (0.5 mg/ml) with hand shake and sonication (15 minutes). […] TLC and HPLC (after hydrolysis) show single spot and single peak respectively showing that the product is pure.
The first indication of the salt formation is observed by solubility studies in water.

[3] = tested on: P388 ascites murine leukemia; assay: in vitro cytotoxicity, Microculture Tetrazolium Assay (MTA), P388; format: cell-based; settings: P388, 5 days culture, FIG. 5
Description: The assay used for determining in vitro cytotoxic activity of alkali metal salt of FMA is known as "Microculture Tetrazolium Assay" (MTA) developed by the in vitro Cancer Pharmacology R & D Laboratory at NCI-FCRF. The method utilized is a modification of Procedure by T. Mosmann et al., (J. Immunol. Meth. 65:55, 1983 and 70:257, 1984) described by M. C. Alley et al (Proc. AACR. 27:389, 1986). The testing of alkali metal salt of FMA is done using P388 acites murine leukemia as the test system at a inoculation density of about 1000 cells per well and culture duration of 5 days, with various concentration levels of alkali metal salt of FMA vs fredericamycin A. The concentration range could be from 0.1 μg to 10 μg per ml. The results are recorded as percent of control O.D. for each sample dilution.

[4] = tested on: fungi (Penicillium notatum); assay: antimicrobial activity, disc method, fungi; format: cell-based; settings: concentration 0.025 to 5 μg/ml
Experimental: (§1) Protocol for determining antimicrobial activity against Bacillus subtilis and Penicillium notatum
(§2) These were performed by Disc method, using standard assay procedures and the respective microorganism in each case. 15 μl of each sample in DMSO-H H2 O (1:1) is pipetted on to separate 0.25" absorbent paper disc and the assay is performed following routine techniques well known in the art. Zone sizes are read after incubation overnight (Bacillus subtilis) and after 4 days of incubation (Penicillium notatum) at various concentrations.

[5] = tested on: gram positive bacteria (Bacillus subtilis); assay: antimicrobial activity, disc method, bacteria; format: cell-based; settings: concentration 0.025 to 5 μg/ml
Experimental: as §1, §2

[6] = solubility; format: physicochemical
[7] = stability; format: physicochemical
[8] = tested on: P388 Lymph. Leukemia; assay: in vivo antitumor activity against P388 leukemia; design: species or system CD2F1 mice; settings: for % T/C / % T/C: toxicity: i.p.
Experimental: The antitumor activity is determined by contracted accessary testing services according to the National Cancer Institute (NCI) guidelines for natural products (Geran et al. protocols for Screening Chemical Agents and Natural Products Against Animal Tumors and other Biological Systems. Cancer Chemother. Rep. part 3, 3:7-61, 1972; Schepartz: Antitumor Screening Procedures of the National Cancer Institute. Japan J. Antibiotics 30 (Supl): 35-40, 1977.)
Alkali metal salt of FMA is tested in vivo against P338 leukemia. The test is carried out using male CD2F1 mice (wt.=18 g±3 g) in one experiment and female mice (wt, 17 g±3.0 gm) in another experiment. […]
*T/C is the ratio expressed in percent of the median survival time of the
treated group divided by the median survival time of the control group.
NCI criteria of positive (moderate) activity in P388 Leukemia is indicate
by a T/C value of 120%. A T/C value of ≥ 175% is indicative of
**DMSO = Dimethylsulfoxide; i.p = intraperitoneal route of injection.
Potassium salt of fredericamycin A was dissolved in water only.

[9] = tested on: Gram-negative bacteria; settings: cited from earlier work
[10] = tested on: CD8F mouse mammary tumor; settings: in vivo; cited from earlier work
[11] = tested on: P388 leukemic cells; settings: in vivo; cited from earlier work
[12] = tested on: fungi; settings: cited from earlier work
[13] = tested on: MX-1 breast xenograft; settings: in vivo; cited from earlier work
[14] = tested on: B16 melanoma; settings: in vivo; cited from earlier work
[15] = tested on: Lewis lung carcinoma; settings: in vivo; cited from earlier work
[16] = tested on: LX-1 lung xenograft; settings: in vivo; cited from earlier work
[17] = tested on: Gram-positive bacteria; settings: cited from earlier work
[18] = tested on: L1210 leukemia; settings: in vivo; cited from earlier work
[19] = tested on: mouse leukemia P388; settings: cited from earlier work
[20] = tested on: mouse leukemia L1210; settings: in vitro, compared with actinomycin D and adriamycin; cited from earlier work
[21] = tested on: C38 colon tumor; settings: in vivo; cited from earlier work
[22] = general; precluded further toxicological and pharmacological studies; cited from earlier work
[23] = hygroscopicity; format: physicochemical

C/C=C/C=C/c1cc2cc3c(c(O)c2c(=O)[nH]1)C1(CC3)C(=O)c2c(O)c3c(c(O)c2C1=O)C(=O)C(OC)=CC3=O (stereo not drawn) [KFMA, potassium salt of fredericamycin A]
pH (H2O) ([1]; Table 1): 8.9 ± 0.2 | pH of aqueous solution ([1]; about 1.0 mg/ml in water): 8.65 | solubility ([2]; Table 1): 1000 µg/mL | solubility ([2]; solubility studies in water): ~1000 µg/mL | in vitro cytotoxic activity as compared to that of FMA [3]: equal or better | zone size [4]: 9.5 mm | zone size [5]: 9.5 mm | solubility in chloroform-methanol-acetic acid (87:3:3) and methanol [6]: Soluble | solubility in dimethylacetamide, dimethylformamide, pyridine [6]: Readily Soluble | solubility in ethylacetate, acetonitrile and chloroform [6]: Sparingly soluble | solubility in hexanes, ether, acetone, benzene and carbon tetra chloride [6]: Insoluble | solubility in dimethyl sulfoxide ([6]; Readily Soluble): 8 mg/1.5 ml | solubility ([6]; dmso-saline 5:95, organic solvent or mixture, read-out: solubility in dimethylsulfoxide-saline (5:95)): 1000 µg/mL | solubility ([6]; dmso-saline 10:90, organic solvent or mixture, solution is transparent blue, read-out: solubility in dimethylsulfoxide-saline (10:90)): 1000 µg/mL | solubility ([6]; dmso-water 1:1, organic solvent or mixture, Readily Soluble, read-out: solubility in dimethylsulfoxide-water (1:1)): 3000 µg/mL | solubility ([6]; dmso-water 5:95, organic solvent or mixture, read-out: solubility in dimethylsulfoxide-water (5:95)): 1500 µg/mL | solubility ([6]; water, hand shaking 1 minute, vortexing 3 minutes, read-out: solubility in water): ~1000 µg/mL | stability of DMSO solution (anhydrous) ([7]; 0° C./dark): several days | stability of anhydrous salt ([7]; anhydrous, room temp.): stable | stability of anhydrous salt, duration in words ([7]; anhydrous, room temperature): stable for extended period of time | temperature safely heated to with no decomposition ([7]; high vacuum, 4 hrs): up to 60 °C | hydrolysis to fredericamycin A ([7]; in presence of moisture, acid): Easily hydrolysable | stability of DMSO solution (anhydrous) ([7]; room temp, 4 hrs): fairly stable | storage stability ([7]; sealed under nitrogen, anhydrous, amber container, 0° C. over silica gel): stable for several months | stability of aqueous solution ([7]; water, about 1.0 mg/ml, room temperature): stable for almost an hour | T/C value ([8]; 1 mg/kg level): 178% | % T/C ([8]; Expt #1, 0.125 mg/kg, water): 119% | % T/C ([8]; Expt #1, 0.25 mg/kg, water): 119% | % T/C ([8]; Expt #1, 0.50 mg/kg, water): 153% | % T/C ([8]; Expt #1, 1.00 mg/kg, water): 178% | % T/C: toxicity ([8]; Expt #1, 2.00 mg/kg, water): Toxic | % T/C ([8]; Expt #1, .063 mg/kg, water): 110% | % T/C ([8]; Expt #2, 0.125 mg/kg, water): 120% | % T/C ([8]; Expt #2, 0.25 mg/kg, water): 132% | % T/C ([8]; Expt #2, 0.50 mg/kg, water): 160% | % T/C ([8]; Expt #2, 1.00 mg/kg, water): 175% | % T/C ([8]; Expt #2, .063 mg/kg, water): 112% | activity against P388 leukemia, in words ([8]; all experiments performed): significant activity | differences between male and female mice ([8]; male vs female mice): no differences observed

C/C=C/C=C/c1cc2cc3c(c(O)c2c(=O)[nH]1)C1(CC3)C(=O)c2c(O)c3c(c(O)c2C1=O)C(=O)C(OC)=CC3=O (stereo not drawn) [fredericamycin A]
activity against Gram-negative bacteria [9]: no activity | reducing the median tumor weight [10]: effective | extending the life span of mice inoculated with P388 [11]: effective | activity against fungi [12]: good activity | activity against MX-1 breast xenograft [13]: ineffective | activity against B16 melanoma [14]: marginal activity | activity against Lewis lung carcinoma [15]: ineffective | activity against LX-1 lung xenograft [16]: ineffective | activity against Gram-positive bacteria [17]: good activity | solubility in water, in words [2]: almost insoluble | solubility in water, in words ([2]; listed as FMA): virtually insoluble | activity against L1210 leukemia [18]: ineffective | cytotoxicity ([19]; in general, cells not specified): very cytotoxic | ED50 against P388 ([19]; in vitro, compared with actinomycin D and adriamycin): compared closely to the reported values for actinomycin D and adriamycin | ED50 against L1210 [20]: compared closely to the reported values for actinomycin D and adriamycin | activity against C38 colon tumor [21]: ineffective | solubility [22]: poor solubility | % T/C ([8]; 0.06 mg/kg, DMSO): 122% | % T/C ([8]; 0.12 mg/kg, DMSO): 146% | % T/C ([8]; 0.25 mg/kg, DMSO): 134% | % T/C ([8]; 0.50 mg/kg, DMSO): 200% | % T/C ([8]; 1.00 mg/kg, DMSO): 160% | % T/C: toxicity ([8]; >1.00 mg/kg, DMSO): Toxic

C/C=C/C=C/c1cc2cc3c(c(O)c2c(=O)[nH]1)C1(CC3)C(=O)c2c(O)c3c(c(O)c2C1=O)C(=O)C(OC)=CC3=O (stereo not drawn) [Na-FMA, sodium salt of fredericamycin A]
hygroscopicity [23]: highly hygroscopic | pH (water) ([1]; 0.5 mg/ml in water): 9.2±0.5 | solubility ([2]; hand shake and sonication (15 minutes)): 500 µg/mL | stability of aqueous solution on longer standing ([7]; water, room temperature): hydrolyzing back to fredericamycin A
